Assay results as given in US9884818B2, “Sulphamoylpyrrolamide derivatives and the use thereof as medicaments for the treatment of hepatitis B” (Janssen Sciences Ireland UC, priority 2013, dated 2018).

Columns and labels:
[1] = tested on: HBV; test: Anti-HBV activity, HepG2.2.15 stable transfected cell line, HBV DNA from secreted virions by realtime PCR; assay type: cell-based; settings: HepG2.2.15 cells, 6 days of treatment, HBV DNA from secreted virions, read-out: HepG2 2.15 EC50
[2] = tested on: HBV; test: Anti-HBV activity, HepG2.117 inducibly HBV producing cell line (Tet-off), intracellular HBV DNA by realtime PCR; assay type: cell-based; settings: Hepatitis B virus, HepG2.117, 72 h, HepG2.117 cells, 3 days of treatment, intracellular HBV DNA; read-out: HepG2 117 EC50
[3] = Cytotoxicity in HepG2 cells, Resazurin viability assay; settings: human, HepG2 cells, HepG2 4 days CC50 (μM), incubated for 4 days, Resazurin assay
[4] = Hepatitis B virus, HepG2.2.15, 144 h

Row | SMILES | EC50 [1, 4] [nM] | EC50 [2] [nM] | CC50 at 4 days [3] [µM] | EC50 [1] [nM]
1 | Cn1cc(S(=O)(=O)NC2(C)CC2)cc1C(=O)Nc1ccc(F)c(Cl)c1F [Compound 255, N-(3-chloro-2,4-difluoro-phenyl)-1-methyl-4-[(1-methylcyclopropyl)-sulfamoyl]-1H-pyrrole-2-carboxamide] | 90 | 100 | > 25 | –
2 | Cc1cc(NC(=O)c2cc(S(=O)(=O)N[C@H](C)CS(C)(=O)=O)cn2C)ccc1F [Compound 97, N-(4-Fluoro-3-methylphenyl)-1-methyl-4-{[(1R)-1-methyl-2-(methyl-sulfonyl)ethyl]sulfamoyl}-1H-pyrrole-2-carboxamide] | 30 | 30 | > 25 | –
3 | C[C@H](NS(=O)(=O)c1cc(C(=O)Nc2ccc(F)c(F)c2F)n(C)c1)C(F)(F)F [Compound 154, 1-Methyl-4-{[(1S)-2,2,2-trifluoro-1-methylethyl]sulfamoyl}-N-(2,3,4-trifluorophenyl)-1H-pyrrole-2-carboxamide] | 130 | 80 | > 25 | –
4 | CCC(CC)(NS(=O)(=O)c1cc(C(=O)Nc2ccc(F)c(Cl)c2F)n(C)c1)C(F)(F)F [Compound 259, N-(3-chloro-2,4-difluoro-phenyl)-4-[[1-ethyl-1-(trifluoromethyl)-propyl]sulfamoyl]-1-methyl-1H-pyrrole-2-carboxamide] | 50 | 50 | > 25 | –
5 | Cc1c(S(=O)(=O)N[C@@H](C)C(F)(F)F)cn(C)c1C(=O)Nc1ccc(F)c(C#N)c1 [Compound 151, N-(3-Cyano-4-fluorophenyl)-1,3-dimethyl-4-{[(1S)-2,2,2-trifluoro-1-methylethyl]sulfamoyl}-1H-pyrrole-2-carboxamide] | 80 | 70 | > 25 | –
6 | Cn1cc(S(=O)(=O)NC2(C(F)(F)F)CCC2)c(Cl)c1C(=O)Nc1ccc(F)c(Cl)c1F [Compound 219, 3-Chloro-N-(3-chloro-2,4-difluorophenyl)-1-methyl-4-{[1-(trifluoro-methyl)cyclobutyl]sulfamoyl}-1H-pyrrole-2-carboxamide] | 10 | 9 | > 25 | –
7 | [2H]c1cc(F)c(C)c([2H])c1NC(=O)c1cc(S(=O)(=O)NC(C([2H])([2H])[2H])(C([2H])([2H])[2H])C([2H])([2H])[2H])cn1C [Compound 70, N-(2,6-dideuterio-4-fluoro-3-methyl-phenyl)-1-methyl-4-[[2,2,2-trideuterio-1,1-bis(trideuteriomethyl)ethyl]sulfamoyl]pyrrole-2-carboxamide] | 20 | 40 | > 25 | –
8 | Cn1cc(S(=O)(=O)NC(C)(C)C(F)(F)F)cc1C(=O)Nc1cc(F)c(F)c(Cl)c1 [Compound 96, N-(3-Chloro-4,5-difluorophenyl)-1-methyl-4-[(2,2,2-trifluoro-1,1-dimethylethyl)sulfamoyl]-1H-pyrrole-2-carboxamide] | 10 | 30 | 23.7 | –
9 | Cn1cc(S(=O)(=O)NC(C)(C)CF)cc1C(=O)Nc1ccc(F)c(Cl)c1F [Compound 261] | 40 | 130 | > 25 | –
10 | Cn1cc(S(=O)(=O)N[C@H]2CCOC2)cc1C(=O)Nc1ccc(F)c(F)c1 [Compound 21, N-(3,4-difluorophenyl)-1-methyl-4-[[(3S)-tetrahydrofuran-3-yl]-sulfamoyl]pyrrole-2-carboxamide] | 220 | 840 | > 25 | –
11 | Cn1cc(S(=O)(=O)NC2CCC(F)(F)C2)cc1C(=O)Nc1cc(F)c(F)c(Cl)c1 (single isomer, unassigned) [Compound 166a, N-(3-Chloro-4,5-difluorophenyl)-4-[(3,3-difluorocyclopentyl)sulfamoyl]-1-methyl-1H-pyrrole-2-carboxamide] | – | 100 | 17.9 | 140
12 | C[C@@H](NS(=O)(=O)c1cn(C)c(C(=O)Nc2cccc(Br)c2)c1F)C(F)(F)F [Compound 280, N-(3-bromophenyl)-3-fluoro-1-methyl-4-[[(1R)-2,2,2-trifluoro-1-methyl-ethyl]sulfamoyl]pyrrole-2-carboxamide] | 5 | 60 | > 25 | –
13 | Cn1cc(S(=O)(=O)NC(C)(C)C)cc1C(=O)Nc1ccc(F)c(OC(F)(F)F)c1 [Compound 98, 4-(tert-Butylsulfamoyl)-N-[4-fluoro-3-(trifluoromethoxy)phenyl]-1-methyl-1H-pyrrole-2-carboxamide] | 810 | 540 | > 25 | –
14 | Cn1cc(S(=O)(=O)NC(C)(C)C(F)(F)F)cc1C(=O)Nc1ccc(F)c(Cl)c1F [Compound 254, N-(3-chloro-2,4-difluoro-phenyl)-1-methyl-4-[(2,2,2-trifluoro-1,1-dimethyl-ethyl)sulfamoyl]-1H-pyrrole-2-carboxamide] | 50 | 50 | > 25 | –
15 | Cn1cc(S(=O)(=O)NC2(C(N)=O)CC2)cc1C(=O)Nc1cc(F)c(F)c(Cl)c1 [Compound 114, 4-[(1-Carbamoylcyclopropyl)sulfamoyl]-N-(3-chloro-4,5-difluorophenyl)-1-methyl-1H-pyrrole-2-carboxamide] | 100 | 50 | > 25 | –
16 | Cc1cc(NC(=O)c2cc(S(=O)(=O)NC3(CC#N)CC3)cn2C)ccc1F [Compound 18, 4-[[1-(cyanomethyl)cyclopropyl]sulfamoyl]-N-(4-fluoro-3-methyl-phenyl)-1-methyl-pyrrole-2-carboxamide] | < 20 | 30 | > 25 | –
17 | Cc1cc(NC(=O)c2cc(S(=O)(=O)NC3(C)COC3)c(C)n2C)ccc1F [Compound 89, N-(4-Fluoro-3-methylphenyl)-1,5-dimethyl-4-[(3-methyloxetan-3-yl)sulfamoyl]-1H-pyrrole-2-carboxamide] | 20 | 20 | > 25 | –
18 | [2H]c1cc(F)c(C)c([2H])c1NC(=O)c1cc(S(=O)(=O)NC2(C)COC2)cn1C [Compound 56, N-(2,6-dideuterio-4-fluoro-3-methyl-phenyl)-1-methyl-4-[(3-methyloxetan-3-yl)sulfamoyl]pyrrole-2-carboxamide] | 20 | < 20 | > 25 | –
19 | Cc1c(S(=O)(=O)NC2(C)COC2)cn(C)c1C(=O)Nc1cc(F)c(F)c(Cl)c1 [Compound 201, N-(3-Chloro-4,5-difluorophenyl)-1,3-dimethyl-4-[(3-methyloxetan-3-yl)sulfamoyl]-1H-pyrrole-2-carboxamide] | 70 | 20 | > 25 | –
20 | Cc1c(S(=O)(=O)NC2(C)COC2)cn(C)c1C(=O)Nc1ccc(F)c(F)c1 [Compound 148, N-(3,4-Difluorophenyl)-1,3-dimethyl-4-[(3-methyloxetan-3-yl)sulfamoyl]-1H-pyrrole-2-carboxamide] | 110 | 70 | > 25 | –
21 | Cc1cc(NC(=O)c2cc(S(=O)(=O)N[C@@H](C)C(F)(F)F)cn2C)ccc1F [Compound 8, N-(4-fluoro-3-methyl-phenyl)-1-methyl-4-[[(1S)-2,2,2-trifluoro-1-methyl-ethyl]sulfamoyl]pyrrole-2-carboxamide] | 20 | 20 | > 25 | –
22 | Cn1cc(S(=O)(=O)NC(C)(C)C)c(F)c1C(=O)Nc1ccc(F)c(C#N)c1 [Compound 214, 4-(tert-Butylsulfamoyl)-N-(3-cyano-4-fluorophenyl)-3-fluoro-1-methyl-1H-pyrrole-2-carboxamide] | 60 | 20 | > 25 | –
23 | Cc1cc(NC(=O)c2cc(S(=O)(=O)NC3CC(=O)N(C)C3)cn2C)ccc1F (stereo not drawn) [Compound 13, N-(4-fluoro-3-methyl-phenyl)-1-methyl-4-[(1-methyl-5-oxo-pyrrolidin-3-yl)sulfamoyl]pyrrole-2-carboxamide] | 460 | 140 | > 25 | –
24 | CC[C@H](NS(=O)(=O)c1cc(C(=O)Nc2ccc(F)c(Cl)c2F)n(C)c1)C(F)(F)F [Compound 262, N-(3-chloro-2,4-difluoro-phenyl)-1-methyl-4-{[(1S)-1-(trifluoro-methyl)propyl]sulfamoyl}-1H-pyrrole-2-carboxamide] | 20 | 20 | > 25 | –
25 | C[C@@H](NS(=O)(=O)c1cn(C)c(C(=O)Nc2cccc(C#N)c2)c1F)C(F)(F)F [Compound 180, N-(3-Cyanophenyl)-3-fluoro-1-methyl-4-{[(1R)-2,2,2-trifluoro-1-methylethyl]sulfamoyl}-1H-pyrrole-2-carboxamide] | 10 | 20 | > 25 | –
26 | Cn1cc(S(=O)(=O)NC2(C(F)(F)F)CCOC2)cc1C(=O)Nc1ccc(F)c(C#N)c1 (single isomer, unassigned) [Compound 228a, N-(3-Cyano-4-fluorophenyl)-1-methyl-4-{[3-(trifluoromethyl)tetrahydrofuran-3-yl]sulfamoyl}-1H-pyrrole-2-carboxamide] | 30 | 30 | > 25 | –
27 | C[C@@H](NS(=O)(=O)c1cn(C)c(C(=O)Nc2cccc(C#N)c2F)c1F)C(F)(F)F [Compound 182, N-(3-Cyano-2-fluorophenyl)-3-fluoro-1-methyl-4-{[(1R)-2,2,2-trifluoro-1-methylethyl]sulfamoyl}-1H-pyrrole-2-carboxamide] | 10 | 30 | > 25 | –
